From patent USRE42152E1, “Aromatic-linked polyamine macrocyclic compounds with anti-HIV activity” (Genzyme Corporation, priority 1992, dated 2011)
Converted amounts (≈) assume the structure as drawn. Where two headings read alike, the source gives them in different places.

Legend:
Assay type in all cases: cell-based
HIV-2 (LAV-2 ROD) = test: MTT anti-viral screen, MT-4 cells challenged with HIV-2; settings: for IC50: Human immunodeficiency virus 2, MT4, 120 h, read-out: IC50 HIV-2 (ROD)
MT-4 cells = test: Cytotoxicity by MTT method in MT-4 cells
HIV-1 (HTLV-IIIB) = test: microbe, parasite or virus in culture; settings: for IC50: Human immunodeficiency virus 1, IIIB, MT4, 120 h, read-out: IC50 HIV-1 (IIIB)
[1] = Cytotoxicity by MTT method in MT-4 cells
[2] = MT-4 cells, 100 CCID50, 5 days, MTT
[3] = MT-4 cells, 5 days, MTT, HIV-1 part of table
[4] = MT-4 cells, 5 days, MTT, HIV-2 part of table
[5] = human, MT-4 cells, 5 days, MTT; HIV-1 part of table; read-out: CC50 (HIV-1 (IIIB))
[6] = human, MT-4 cells, 5 days, MTT; HIV-2 part of table; read-out: CC50 (HIV-2 (ROD))
[7] = human; MT-4 cells, 5 days, MTT; HIV-1 part of table; read-out: CC50 (HIV-1 (IIIB))

For “1,1′-[1,4-Phenylene-bis-(methylene)]-bis-1,4,8,11-tetraazacyclotetradecane copper diacetate hexahydrate [Compound G]”, which “IC50 HIV-2 (ROD)” value (HIV-2 (LAV-2 ROD); [2]) is on record?
Its value is 0.027 µg/mL.

What about the “CC50 (HIV-1 (IIIB))” value (MT-4 cells; [3]) of the same compound?
Its value is greater than 200 µg/mL.

What about the “CC50 (HIV-2 (ROD))” value (MT-4 cells; [4]) of the same compound?
Its value is greater than 200 µg/mL.

And the “IC50 HIV-1 (IIIB)” value (HIV-1 (HTLV-IIIB); [2])?
Its value is 0.018 µg/mL.

For “1,1′-[1,4-Phenylene-bis-(methylene)]-bis-1,4,8,11-tetraazacyclotetradecane zinc dichloride monohydrate [Compound F]”, which “IC50 HIV-2 (ROD)” value (HIV-2 (LAV-2 ROD); [2]) is on record?
Its value is 0.0019 µg/mL.

What about the “CC50 (HIV-1 (IIIB))” value (MT-4 cells; [3]) of the same compound?
Its value is greater than 200 µg/mL.

What about the “CC50 (HIV-2 (ROD))” value (MT-4 cells; [4]) of the same compound?
The value was greater than 200 µg/mL.

And the “IC50 HIV-1 (IIIB)” value (HIV-1 (HTLV-IIIB); [2])?
The value was 0.0026 µg/mL.

What does the source list for `c1cc(CN2CCCNCCNCCCNCC2)cc(CN2CCCNCCNCCCNCC2)c1` [A, 1,1′-[1,3-phenylenebis(methylene)]bis-1,4,8,11-tetraazacyclotetradecane]?
IC50 (HIV-2 (LAV-2 ROD); [2]): < 0.01 µg/mL; CC50 at 5 days [1, 5]: > 500 µg/mL; CC50 at 5 days [1, 6]: > 500 µg/mL; IC50 (HIV-1 (HTLV-IIIB); [2]): 0.03 µg/mL (≈ 0.0597 µM)

Which results are given for `O=[N+]([O-])c1cc(CN2CCCNCCNCCCNCC2)cc(CN2CCCNCCNCCCNCC2)c1` [Compound C, 1,1′-[5-nitro-1,3-phenylenebis-(methylene)]-bis-1,4,8,11-tetraazacyclotetradecane]?
IC50 (HIV-2 (LAV-2 ROD); [2]): 0.07 µg/mL (≈ 0.128 µM); CC50 at 5 days [1, 5]: 55 µg/mL (≈ 100 µM); CC50 at 5 days [1, 6]: 55 µg/mL (≈ 100 µM); IC50 (HIV-1 (HTLV-IIIB); [2]): 0.05 µg/mL (≈ 0.0913 µM)

With `Br.Br.Br.Br.Br.Br.Br.Br.O.O.O.O.c1cc(CN2CCCNCCNCCCNCC2)cc(-c2cccc(CN3CCCNCCNCCCNCC3)c2)c1` [Compound J, 1,1′-[3,3′-Biphenylene-bis-(methylene)]-bis-1,4,8,11-tetraazacyclotetradecane octahydrobromide tetrahydrate] as the compound, how does the “IC50 HIV-2 (ROD)” value (HIV-2 (LAV-2 ROD); [2]) read?
The value was 0.22 µg/mL.

And the “CC50 (HIV-1 (IIIB))” value (MT-4 cells)?
Its value is greater than 200 µg/mL.

What about the “CC50 (HIV-2 (ROD))” value (MT-4 cells) of the same compound?
The value was greater than 200 µg/mL.

And the “IC50 HIV-1 (IIIB)” value (HIV-1 (HTLV-IIIB); [2])?
The value was 0.16 µg/mL.

With `Br.Br.Br.Br.Br.Br.Br.Br.Br.Br.O.O.O.O.O.c1cc(CN2CCCNCCNCCCNCC2)cc(-c2cc(CN3CCCNCCNCCCNCC3)ccn2)n1` [Compound K, 1,1′-[4,4′-(2,2′-Bipyridine)-bis-(methyl)]-bis-1,4,8,11-tetraazacyclotetradecane decahydrobromide pentahydrate] as the compound, how does the “IC50 HIV-2 (ROD)” value (HIV-2 (LAV-2 ROD); [2]) read?
Its value is 0.35 µg/mL.

What about the “CC50 (HIV-1 (IIIB))” value (MT-4 cells; [3]) of the same compound?
Its value is 117 µg/mL.

And the “CC50 (HIV-2 (ROD))” value (MT-4 cells; [4])?
Its value is 117 µg/mL.

And the “IC50 HIV-1 (IIIB)” value (HIV-1 (HTLV-IIIB); [2])?
Its value is 0.38 µg/mL.

Which “IC50 HIV-2 (ROD)” value (HIV-2 (LAV-2 ROD); [2]) does the source give for `Br.Br.Br.Br.Br.Br.Br.Br.Br.Br.O.O.O.c1cc2ccc3ccc(CN4CCCNCCNCCCNCC4)nc3c2nc1CN1CCCNCCNCCCNCC1` [Compound L, 1,1′-[2,9-(1,10-Phenanthroline)-bis-(methylene)]-bis-1,4,8,11-tetraazacyclotetradecane decahydrobromide trihydrate] here?
Its value is 0.32 µg/mL.

And the “CC50 (HIV-1 (IIIB))” value (MT-4 cells)?
Its value is greater than 200 µg/mL.

And the “CC50 (HIV-2 (ROD))” value (MT-4 cells)?
Its value is greater than 200 µg/mL.

What about the “IC50 HIV-1 (IIIB)” value (HIV-1 (HTLV-IIIB); [2]) of the same compound?
Its value is 0.29 µg/mL.

With `Br.Br.Br.Br.Br.Br.Br.Br.O.O.O.O.O.O.c1cc(CN2CCCNCCNCCCNCC2)ccc1CN1CCCNCCNCCNCCC1` [Compound N, 1,11′-[1,4-Phenylene-bis-(methylene)]-1,4,8,11-tetraazacyclotetradecane-1,4,7,11-tetraazacydotetradecane octahydrobromide hexahydrate] as the compound, how does the “IC50 HIV-2 (ROD)” value (HIV-2 (LAV-2 ROD); [2]) read?
Its value is 0.07 µg/mL.

And the “CC50 (HIV-1 (IIIB))” value (MT-4 cells)?
The value was greater than 500 µg/mL.

What about the “CC50 (HIV-2 (ROD))” value (MT-4 cells) of the same compound?
The value was greater than 500 µg/mL.

What about the “IC50 HIV-1 (IIIB)” value (HIV-1 (HTLV-IIIB); [2]) of the same compound?
The value was 0.01 µg/mL.

What does the source list for `Br.Br.Br.Br.Br.Br.Br.Br.O.O.O.O.c1cc(CN2CCCNCCNCCCNCC2)nc(CN2CCCNCCNCCCNCC2)c1` [Compound O, 1,1′-[2,6-Pyridinebis-(methylene)]-bis-1,4,8,11-tetraazacyclotetradecane octahydrobromide tetrahydrate]?
IC50 HIV-2 (ROD) (HIV-2 (LAV-2 ROD); [2]): 0.08 µg/mL; CC50 (HIV-1 (IIIB)) (MT-4 cells): >500 µg/mL; CC50 (HIV-2 (ROD)) (MT-4 cells): >500 µg/mL; IC50 HIV-1 (IIIB) (HIV-1 (HTLV-IIIB); [2]): 0.03 µg/mL

For `Br.Br.Br.Br.Br.Br.Br.Br.Br.O.O.c1ncc(CN2CCCNCCNCCCNCC2)cc1CN1CCCNCCNCCCNCC1` [Compound P, 1,1′[3,5-Pyridinebis-(methylene)]-bis-1,4,8,11-tetraazacyclotetradecane nonahydrobromide dihydrate], which “IC50 HIV-2 (ROD)” value (HIV-2 (LAV-2 ROD); [2]) is on record?
Its value is 0.09 µg/mL.

And the “CC50 (HIV-1 (IIIB))” value (MT-4 cells)?
The value was greater than 500 µg/mL.

And the “CC50 (HIV-2 (ROD))” value (MT-4 cells)?
The value was greater than 500 µg/mL.

And the “IC50 HIV-1 (IIIB)” value (HIV-1 (HTLV-IIIB); [2])?
The value was 0.04 µg/mL.

With `Br.Br.Br.Br.Br.Br.c1cc(CN2CCNCCNCCNCC2)cc(CN2CCNCCNCCNCC2)c1` [Compound Q, 1,1′-[1,3-Phenylenebis-(methylene)]-bis-1,4,7,10-tetraazacyclododecane hexahydrobromide] as the compound, how does the IC50 (HIV-2 (LAV-2 ROD)) read?
Its IC50 is 0.5 µg/mL.

What about the CC50 at 5 days [1, 7] of the same compound?
Its CC50 at 5 days is 19 µg/mL.

And the IC50 (HIV-1 (HTLV-IIIB))?
Its IC50 is 0.07 µg/mL.

With `Br.Br.Br.Br.Br.Br.c1cc(CN2CCNCCNCCNCC2)ccc1CN1CCNCCNCCNCC1` [Compound R, 1,1′-[1,4-Phenylenebis-(methylene)]-bis-1,4,7,10-tetraazacyclododecane hexahydrobromide] as the compound, how does the IC50 (HIV-2 (LAV-2 ROD)) read?
The IC50 was 2.2 µg/mL.

And the CC50 at 5 days [1, 7]?
Its CC50 at 5 days is 51 µg/mL.

What about the IC50 (HIV-1 (HTLV-IIIB)) of the same compound?
The IC50 was 0.3 µg/mL.

With `Br.Br.Br.Br.Br.Br.Br.Br.c1cc(CN2CCCNCCNCCCNCC2)sc1CN1CCCNCCNCCCNCC1` [Compound T, 1,1′-[2,5-Thophenebis-(methylene)]-bis-1,4,8,11-tetraazacyclotetradecane octahydrobromide] as the compound, how does the “IC50 HIV-2 (ROD)” value (HIV-2 (LAV-2 ROD); [2]) read?
Its value is 0.02 µg/mL.

What about the “CC50 (HIV-1 (IIIB))” value (MT-4 cells) of the same compound?
The value was greater than 500 µg/mL.

And the “CC50 (HIV-2 (ROD))” value (MT-4 cells)?
Its value is greater than 500 µg/mL.

And the “IC50 HIV-1 (IIIB)” value (HIV-1 (HTLV-IIIB); [2])?
The value was 0.01 µg/mL.

With `c1ccc2c(CN3CCCNCCNCCCNCC3)ccc(CN3CCCNCCNCCCNCC3)c2c1` [E, 1,1′-[1,4-naphthylenebis(methylene)]bis-1,4,8,11-tetraazacyclotetradecane] as the compound, how does the “IC50 HIV-2 (ROD)” value (HIV-2 (LAV-2 ROD); [2]) read?
The value was 0.05 µg/mL (≈ 0.0904 µM).

And the “CC50 (HIV-1 (IIIB))” value (MT-4 cells)?
The value was 71 µg/mL (≈ 128 µM).

And the “CC50 (HIV-2 (ROD))” value (MT-4 cells)?
The value was 71 µg/mL (≈ 128 µM).

And the “IC50 HIV-1 (IIIB)” value (HIV-1 (HTLV-IIIB); [2])?
Its value is 0.07 µg/mL (≈ 0.127 µM).

Which IC50 (HIV-2 (LAV-2 ROD); [2]) does the source give for `Cc1cc(CN2CCCNCCNCCCNCC2)c(C)cc1CN1CCCNCCNCCCNCC1` [W, 1,1′-[2,5-dimethyl-1,4-phenylenebis-(methylene)]-bis-1,4,8,11-tetraazacyclotetradecane] here?
The IC50 was 0.0013 µg/mL (≈ 0.00245 µM).

What about the CC50 at 5 days [1, 5] of the same compound?
Its CC50 at 5 days is greater than 250 µg/mL.

And the CC50 at 5 days [1, 6]?
Its CC50 at 5 days is greater than 250 µg/mL.

And the IC50 (HIV-1 (HTLV-IIIB); [2])?
The IC50 was 0.0076 µg/mL (≈ 0.0143 µM).

Which results are given for `Clc1cc(CN2CCCNCCNCCCNCC2)c(Cl)cc1CN1CCCNCCNCCCNCC1` [X, 1,1′-[2,5-dichloro-1,4-phenylenebis-(methylene)]-bis-1,4,8,11-tetraazacyclotetradecane]?
IC50 (HIV-2 (LAV-2 ROD); [2]): 0.003 µg/mL (≈ 0.00525 µM); CC50 at 5 days [1, 5]: 71.9 µg/mL (≈ 126 µM); CC50 at 5 days [1, 6]: 72.7 µg/mL (≈ 127 µM); IC50 (HIV-1 (HTLV-IIIB); [2]): 0.0131 µg/mL (≈ 0.0229 µM)

Which results are given for `c1ccc(-c2cc(CN3CCCNCCNCCCNCC3)cc(CN3CCCNCCNCCCNCC3)n2)cc1` [Z, 1,1′-[6-phenyl-2,4-pyridinebis-(methylene)]-bis-1,4,8,11-tetraazacyclotetradecane]?
IC50 HIV-2 (ROD) (HIV-2 (LAV-2 ROD); [2]): 0.0246 µg/mL (≈ 0.0424 µM); CC50 (HIV-1 (IIIB)) (MT-4 cells): >250 µg/mL; CC50 (HIV-2 (ROD)) (MT-4 cells): >250 µg/mL; IC50 HIV-1 (IIIB) (HIV-1 (HTLV-IIIB); [2]): 0.0489 µg/mL (≈ 0.0843 µM)
